Data: ChEMBL document CHEMBL1201862, “PubChem BioAssay data set” (2004)
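Cultured in 96-well plates, cells were exposed to test compound for 48 hours across five concentrations. Here, GI50 denotes the concentration required for 50% inhibition of growth.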 Activity calls are given as the source filed them. Cut-off read from the data, not from the text of the source: active = GI50 up to about 1.1 µM and inactive = higher.

Key:
Test in all cases: growth of human tumour cells (NCI), 48 h
786-0 = test system: 786-0
A498 = test system: A498
A549 = test system: A549
ACHN = test system: ACHN
CAKI-1 = test system: CAKI-1
CCRF-CEM = test system: CCRF-CEM
COLO 205 = test system: COLO 205
DLD-1 = test system: DLD-1
DMS-114 = test system: DMS-114
DMS-273 = test system: DMS-273
EKVX = test system: EKVX
HCC 2998 = test system: HCC 2998
HCT-116 = test system: HCT-116
HCT-15 = test system: HCT-15
HL-60 = test system: HL-60
HOP-18 = test system: HOP-18
HOP-62 = test system: HOP-62
HOP-92 = test system: HOP-92
HT-29 = test system: HT-29
IGROV-1 = test system: IGROV-1
K562 = test system: K562
KM-20L2 = test system: KM-20L2
KM12 = test system: KM12
LOX IMVI = test system: LOX IMVI
LXFL 529 = test system: LXFL 529
M14 = test system: M14
M19-MEL = test system: M19-MEL
MOLT-4 = test system: MOLT-4
Malme-3M = test system: Malme-3M
NCI-H226 = test system: NCI-H226
NCI-H23 = test system: NCI-H23
NCI-H460 = test system: NCI-H460
NCI-H522 = test system: NCI-H522
OVCAR-3 = test system: OVCAR-3
OVCAR-4 = test system: OVCAR-4
OVCAR-5 = test system: OVCAR-5
OVCAR-8 = test system: OVCAR-8
RPMI-8226 = test system: RPMI-8226
RXF 393 = test system: RXF 393
RXF 631 = test system: RXF 631
SF-268 = test system: SF-268
SF-295 = test system: SF-295
SF-539 = test system: SF-539
SK-MEL-28 = test system: SK-MEL-28
SK-MEL-2 = test system: SK-MEL-2
SK-MEL-5 = test system: SK-MEL-5
SK-OV-3 = test system: SK-OV-3
SN12C = test system: SN12C
SNB-19 = test system: SNB-19
SNB-75 = test system: SNB-75
SNB-78 = test system: SNB-78
SR = test system: SR
SW-620 = test system: SW-620
TK-10 = test system: TK-10
U-251 = test system: U-251
UACC-257 = test system: UACC-257
UACC-62 = test system: UACC-62
UO-31 = test system: UO-31
XF498 = test system: XF498

## O=C(O)/C=C\C(=O)c1ccc(Cl)cc1
786-0
  GI50: 28.9 µM (inactive)
A498
  GI50: 79.8 µM (inactive)
A549
  GI50: > 100 µM (inactive)
ACHN
  GI50: 21.3 µM (inactive)
CAKI-1
  GI50: 24.7 µM (inactive)
CCRF-CEM
  GI50: 20 µM (inactive)
COLO 205
  GI50: 19.6 µM (inactive)
DLD-1
  GI50: 35.2 µM (inactive)
DMS-114
  GI50: 21.4 µM (inactive)
DMS-273
  GI50: 20.2 µM (inactive)
EKVX
  GI50: > 56.4 µM (inactive)
HCC 2998
  GI50: > 100 µM (inactive)
HCT-116
  GI50: 25.2 µM (inactive)
HCT-15
  GI50: 20.7 µM
HL-60
  GI50: 23.5 µM (inactive)
HOP-18
  GI50: > 69.2 µM (inactive)
HOP-62
  GI50: > 100 µM (inactive)
HOP-92
  GI50: 24.5 µM (inactive)
HT-29
  GI50: 27.2 µM (inactive)
IGROV-1
  GI50: > 70.1 µM (inactive)
K562
  GI50: 31.1 µM (inactive)
KM-20L2
  GI50: 36.7 µM (inactive)
KM12
  GI50: 52.1 µM (inactive)
LOX IMVI
  GI50: 24.9 µM (inactive)
LXFL 529
  GI50: 21.8 µM (inactive)
M14
  GI50: 18.5 µM (inactive)
M19-MEL
  GI50: 24.3 µM (inactive)
MOLT-4
  GI50: 24.7 µM (inactive)
Malme-3M
  GI50: 18.9 µM (inactive)
NCI-H226
  GI50: > 55.8 µM (inactive)
NCI-H23
  GI50: 31.8 µM (inactive)
NCI-H460
  GI50: > 100 µM (inactive)
NCI-H522
  GI50: > 100 µM (inactive)
OVCAR-3
  GI50: 28.8 µM (inactive)
OVCAR-4
  GI50: 29.6 µM (inactive)
OVCAR-5
  GI50: > 100 µM (inactive)
OVCAR-8
  GI50: > 74.6 µM (inactive)
RPMI-8226
  GI50: 25.2 µM (inactive)
RXF 393
  GI50: 21.5 µM (inactive)
RXF 631
  GI50: > 100 µM (inactive)
SF-268
  GI50: 29.4 µM (inactive)
SF-295
  GI50: > 100 µM (inactive)
SF-539
  GI50: 25.1 µM (inactive)
SK-MEL-28
  GI50: 18.7 µM (inactive)
SK-MEL-2
  GI50: 28.6 µM (inactive)
SK-MEL-5
  GI50: > 83.9 µM (inactive)
SK-OV-3
  GI50: > 100 µM (inactive)
SN12C
  GI50: 51.9 µM (inactive)
SNB-19
  GI50: > 63 µM (inactive)
SNB-75
  GI50: 44 µM (inactive)
SNB-78
  GI50: 33.7 µM (inactive)
SR
  GI50: 24.3 µM (inactive)
SW-620
  GI50: 24 µM (inactive)
TK-10
  GI50: 40.5 µM (inactive)
U-251
  GI50: > 56.9 µM (inactive)
UACC-257
  GI50: 20.1 µM (inactive)
UACC-62
  GI50: 29.9 µM (inactive)
UO-31
  GI50: 33.9 µM (inactive)
XF498
  GI50: 27.7 µM (inactive)

## NC1=C(C(=O)O)C(=O)C(Nc2c(O)cccc2C(=O)O)=CC1=O
786-0
  GI50: > 100 µM (inactive)
A498
  GI50: > 100 µM (inactive)
A549
  GI50: > 100 µM (inactive)
ACHN
  GI50: > 100 µM (inactive)
CAKI-1
  GI50: > 100 µM (inactive)
COLO 205
  GI50: > 100 µM (inactive)
DLD-1
  GI50: 31.6 µM (inactive)
DMS-114
  GI50: > 100 µM (inactive)
DMS-273
  GI50: > 100 µM (inactive)
EKVX
  GI50: > 100 µM (inactive)
HCC 2998
  GI50: 31.6 µM (inactive)
HCT-116
  GI50: > 100 µM (inactive)
HCT-15
  GI50: > 100 µM
HL-60
  GI50: > 100 µM (inactive)
HOP-18
  GI50: > 100 µM (inactive)
HOP-62
  GI50: > 100 µM (inactive)
HOP-92
  GI50: > 100 µM (inactive)
HT-29
  GI50: > 100 µM (inactive)
IGROV-1
  GI50: > 100 µM (inactive)
K562
  GI50: > 100 µM (inactive)
KM-20L2
  GI50: > 100 µM (inactive)
KM12
  GI50: > 100 µM (inactive)
LOX IMVI
  GI50: > 100 µM (inactive)
LXFL 529
  GI50: > 100 µM (inactive)
M14
  GI50: 45.4 µM (inactive)
M19-MEL
  GI50: 18.7 µM (inactive)
MOLT-4
  GI50: > 100 µM (inactive)
Malme-3M
  GI50: 40.1 µM (inactive)
NCI-H226
  GI50: > 100 µM (inactive)
NCI-H23
  GI50: > 100 µM (inactive)
NCI-H460
  GI50: 10 µM (inactive)
NCI-H522
  GI50: > 100 µM (inactive)
OVCAR-3
  GI50: > 100 µM (inactive)
OVCAR-4
  GI50: > 100 µM (inactive)
OVCAR-5
  GI50: > 100 µM (inactive)
OVCAR-8
  GI50: > 100 µM (inactive)
RPMI-8226
  GI50: > 100 µM (inactive)
RXF 393
  GI50: 31.6 µM (inactive)
RXF 631
  GI50: > 100 µM (inactive)
SF-268
  GI50: 1 µM (active)
SF-295
  GI50: 43 µM (inactive)
SF-539
  GI50: > 100 µM (inactive)
SK-MEL-28
  GI50: 0.942 µM (active)
SK-MEL-2
  GI50: 59.3 µM (inactive)
SK-MEL-5
  GI50: 76 µM (inactive)
SK-OV-3
  GI50: > 100 µM (inactive)
SN12C
  GI50: > 100 µM (inactive)
SNB-19
  GI50: > 100 µM (inactive)
SNB-75
  GI50: > 100 µM (inactive)
SNB-78
  GI50: > 100 µM (inactive)
SR
  GI50: > 100 µM (inactive)
SW-620
  GI50: > 100 µM (inactive)
TK-10
  GI50: > 100 µM (inactive)
U-251
  GI50: > 100 µM (inactive)
UACC-257
  GI50: > 100 µM (inactive)
UACC-62
  GI50: 60 µM (inactive)
UO-31
  GI50: > 100 µM (inactive)
XF498
  GI50: > 100 µM (inactive)

## COc1ccccc1NC(=O)C1=C(C)NC(C)=C(C(=O)Nc2ccccc2OC)C1c1ccccc1[N+](=O)[O-]
786-0
  GI50: 17.4 µM (inactive)
A549
  GI50: > 100 µM (inactive)
ACHN
  GI50: 18.6 µM (inactive)
CCRF-CEM
  GI50: 18.9 µM (inactive)
COLO 205
  GI50: 16.9 µM (inactive)
DLD-1
  GI50: 16.9 µM (inactive)
DMS-114
  GI50: 15 µM (inactive)
DMS-273
  GI50: 17.9 µM (inactive)
EKVX
  GI50: 64.1 µM (inactive)
HCC 2998
  GI50: 18.7 µM (inactive)
HCT-116
  GI50: > 100 µM (inactive)
HCT-15
  GI50: 14.3 µM
HL-60
  GI50: 20.2 µM (inactive)
HOP-18
  GI50: 29.7 µM (inactive)
HOP-62
  GI50: 33.2 µM (inactive)
HOP-92
  GI50: 25.6 µM (inactive)
HT-29
  GI50: 18.7 µM (inactive)
IGROV-1
  GI50: 19.7 µM (inactive)
K562
  GI50: 20.6 µM (inactive)
KM12
  GI50: 16.8 µM (inactive)
LOX IMVI
  GI50: 15.5 µM (inactive)
LXFL 529
  GI50: 11.7 µM (inactive)
M14
  GI50: 16.1 µM (inactive)
M19-MEL
  GI50: 18.5 µM (inactive)
MOLT-4
  GI50: 14.3 µM (inactive)
Malme-3M
  GI50: 13.9 µM (inactive)
NCI-H226
  GI50: 15.2 µM (inactive)
NCI-H23
  GI50: 16.8 µM (inactive)
NCI-H460
  GI50: 16.1 µM (inactive)
NCI-H522
  GI50: 13.1 µM (inactive)
OVCAR-3
  GI50: 18.5 µM (inactive)
OVCAR-4
  GI50: 18.9 µM (inactive)
OVCAR-5
  GI50: 41 µM (inactive)
OVCAR-8
  GI50: 19.2 µM (inactive)
RPMI-8226
  GI50: 19.1 µM (inactive)
RXF 393
  GI50: > 100 µM (inactive)
RXF 631
  GI50: 19.6 µM (inactive)
SF-268
  GI50: 19.8 µM (inactive)
SF-295
  GI50: 32.4 µM (inactive)
SF-539
  GI50: 19.6 µM (inactive)
SK-MEL-28
  GI50: 17.5 µM (inactive)
SK-MEL-2
  GI50: 11.4 µM (inactive)
SK-MEL-5
  GI50: 24.8 µM (inactive)
SK-OV-3
  GI50: 26.9 µM (inactive)
SN12C
  GI50: 16.6 µM (inactive)
SNB-75
  GI50: 42.1 µM (inactive)
SNB-78
  GI50: 34.2 µM (inactive)
SR
  GI50: 11.5 µM (inactive)
TK-10
  GI50: 22.5 µM (inactive)
U-251
  GI50: 14.5 µM (inactive)
UACC-257
  GI50: 19 µM (inactive)
UACC-62
  GI50: 21.3 µM (inactive)
UO-31
  GI50: 19.4 µM (inactive)
XF498
  GI50: 22.2 µM (inactive)
